# From PubChem BioAssay (NCI)
#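 48-hour exposure; five concentrations; linearly interpolated endpoints. The concentration for full growth arrest is given as TGI.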
# What was measured:
# Assay in all cases: NCI anticancer screen, dose series, 48 h
# A498 renal = test system: A498 renal
# SNB-19 CNS = test system: SNB-19 CNS
# IGROV1 ovarian = test system: IGROV1 ovarian
# HOP-92 NSCLC = test system: HOP-92 NSCLC
# DU-145 prostate = test system: DU-145 prostate
# HCC-2998 colon = test system: HCC-2998 colon
# OVCAR-5 ovarian = test system: OVCAR-5 ovarian
# MDA-N = test system: MDA-N
# NCI-H226 lung = test system: NCI-H226 lung
# SK-MEL-28 melanoma = test system: SK-MEL-28 melanoma
# NCI-H23 lung = test system: NCI-H23 lung
# EKVX NSCLC = test system: EKVX NSCLC
# MALME-3M melanoma = test system: MALME-3M melanoma
# CCRF-CEM leukemia = test system: CCRF-CEM leukemia
# SK-MEL-5 melanoma = test system: SK-MEL-5 melanoma
# UACC-62 melanoma = test system: UACC-62 melanoma
# HT29 colon = test system: HT29 colon
# ACHN renal = test system: ACHN renal
# CAKI-1 renal = test system: CAKI-1 renal
# M14 melanoma = test system: M14 melanoma
# NCI-H522 lung = test system: NCI-H522 lung
# PC-3 prostate = test system: PC-3 prostate
# HL-60(TB) leukemia = test system: HL-60(TB) leukemia
# HS 578T breast = test system: HS 578T breast
# SK-OV-3 ovarian = test system: SK-OV-3 ovarian
# SR leukemia = test system: SR leukemia
# KM12 colon = test system: KM12 colon
# HCT-15 colon = test system: HCT-15 colon
# SNB-75 CNS = test system: SNB-75 CNS
# SK-MEL-2 melanoma = test system: SK-MEL-2 melanoma
# COLO 205 colon = test system: COLO 205 colon
# LOX IMVI melanoma = test system: LOX IMVI melanoma
# HCT-116 colon = test system: HCT-116 colon
# SF-268 CNS = test system: SF-268 CNS
# RXF 393 renal = test system: RXF 393 renal
# K-562 leukemia = test system: K-562 leukemia
# 786-0 renal = test system: 786-0 renal
# T-47D breast = test system: T-47D breast
# MCF7 breast = test system: MCF7 breast
# OVCAR-3 ovarian = test system: OVCAR-3 ovarian
# SF-295 CNS = test system: SF-295 CNS
# BT-549 breast = test system: BT-549 breast
# SW-620 colon = test system: SW-620 colon
# A549 NSCLC = test system: A549 NSCLC
# UO-31 renal = test system: UO-31 renal
# SN12C renal = test system: SN12C renal
# MDA-MB-435 = test system: MDA-MB-435
# NCI/ADR-RES ovarian = test system: NCI/ADR-RES ovarian
# SF-539 CNS = test system: SF-539 CNS
# MOLT-4 leukemia = test system: MOLT-4 leukemia
# UACC-257 melanoma = test system: UACC-257 melanoma
# NCI-H460 lung = test system: NCI-H460 lung
# U251 CNS = test system: U251 CNS
# RPMI-8226 leukemia = test system: RPMI-8226 leukemia
# OVCAR-8 ovarian = test system: OVCAR-8 ovarian
# OVCAR-4 ovarian = test system: OVCAR-4 ovarian
# HOP-62 NSCLC = test system: HOP-62 NSCLC
# TK-10 renal = test system: TK-10 renal
smiles,measurement,setting,value
CN(C)c1ccc(C2C(Cl)C(=O)N2NC(=O)c2c(Cl)c(Cl)c(Cl)c(Cl)c2-c2nc3ccccc3[nH]2)cc1 (stereo not given),TGI,A498 renal,40.2 µM
same,TGI,SNB-19 CNS,94.3 µM
same,TGI,IGROV1 ovarian,17.2 µM
same,TGI,HOP-92 NSCLC,23.9 µM
same,TGI,DU-145 prostate,22.5 µM
same,TGI,HCC-2998 colon,30.2 µM
same,TGI,OVCAR-5 ovarian,> 100 µM
same,TGI,MDA-N,55.8 µM
same,TGI,NCI-H226 lung,69.7 µM
same,TGI,SK-MEL-28 melanoma,> 100 µM
same,TGI,NCI-H23 lung,29.7 µM
same,TGI,EKVX NSCLC,67.4 µM
same,TGI,MALME-3M melanoma,36.3 µM
same,TGI,CCRF-CEM leukemia,> 100 µM
same,TGI,SK-MEL-5 melanoma,48.6 µM
same,TGI,UACC-62 melanoma,37.5 µM
same,TGI,HT29 colon,68.9 µM
same,TGI,ACHN renal,34.6 µM
same,TGI,CAKI-1 renal,41.1 µM
same,TGI,M14 melanoma,51.7 µM
same,TGI,NCI-H522 lung,11.9 µM
same,TGI,PC-3 prostate,50.9 µM
same,TGI,HL-60(TB) leukemia,28.8 µM
same,TGI,HS 578T breast,> 100 µM
same,TGI,SK-OV-3 ovarian,> 100 µM
same,TGI,SR leukemia,> 100 µM
same,TGI,KM12 colon,48.4 µM
same,TGI,HCT-15 colon,32.6 µM
same,TGI,SNB-75 CNS,44.3 µM
same,TGI,SK-MEL-2 melanoma,86.7 µM
same,TGI,COLO 205 colon,66.1 µM
same,TGI,LOX IMVI melanoma,30 µM
same,TGI,HCT-116 colon,23.9 µM
same,TGI,SF-268 CNS,43.5 µM
same,TGI,RXF 393 renal,8.96 µM
same,TGI,K-562 leukemia,> 100 µM
same,TGI,786-0 renal,6.2 µM
same,TGI,T-47D breast,25.2 µM
same,TGI,MCF7 breast,23.1 µM
same,TGI,OVCAR-3 ovarian,44.7 µM
same,TGI,SF-295 CNS,> 100 µM
same,TGI,BT-549 breast,33.2 µM
same,TGI,SW-620 colon,> 100 µM
same,TGI,A549 NSCLC,> 100 µM
same,TGI,UO-31 renal,78.5 µM
same,TGI,SN12C renal,38.4 µM
same,TGI,MDA-MB-435,> 100 µM
same,TGI,NCI/ADR-RES ovarian,> 100 µM
same,TGI,SF-539 CNS,57.4 µM
same,TGI,MOLT-4 leukemia,> 100 µM
same,TGI,UACC-257 melanoma,44.6 µM
Cc1ccc(S(=O)(=O)N/N=C2/C3CCC(C3)C2c2ccccc2)cc1 (stereo not given),TGI,NCI-H460 lung,> 100 µM
same,TGI,SNB-19 CNS,> 100 µM
same,TGI,IGROV1 ovarian,> 100 µM
same,TGI,HOP-92 NSCLC,> 100 µM
same,TGI,DU-145 prostate,> 100 µM
same,TGI,U251 CNS,> 100 µM
same,TGI,OVCAR-5 ovarian,> 100 µM
same,TGI,MDA-N,> 100 µM
same,TGI,NCI-H226 lung,> 100 µM
same,TGI,SK-MEL-28 melanoma,> 100 µM
same,TGI,NCI-H23 lung,> 100 µM
same,TGI,EKVX NSCLC,> 100 µM
same,TGI,MALME-3M melanoma,> 100 µM
same,TGI,CCRF-CEM leukemia,> 100 µM
same,TGI,SK-MEL-5 melanoma,> 100 µM
same,TGI,UACC-62 melanoma,> 100 µM
same,TGI,HT29 colon,> 100 µM
same,TGI,ACHN renal,> 100 µM
same,TGI,CAKI-1 renal,> 100 µM
same,TGI,M14 melanoma,> 100 µM
same,TGI,NCI-H522 lung,> 100 µM
same,TGI,PC-3 prostate,> 100 µM
same,TGI,HL-60(TB) leukemia,> 100 µM
same,TGI,HS 578T breast,> 100 µM
same,TGI,RPMI-8226 leukemia,> 100 µM
same,TGI,SK-OV-3 ovarian,> 100 µM
same,TGI,SR leukemia,> 100 µM
same,TGI,KM12 colon,> 100 µM
same,TGI,HCT-15 colon,> 100 µM
same,TGI,SNB-75 CNS,> 100 µM
same,TGI,SK-MEL-2 melanoma,> 100 µM
same,TGI,COLO 205 colon,> 100 µM
same,TGI,LOX IMVI melanoma,> 100 µM
same,TGI,HCT-116 colon,> 100 µM
same,TGI,SF-268 CNS,> 100 µM
same,TGI,OVCAR-8 ovarian,> 100 µM
same,TGI,K-562 leukemia,> 100 µM
same,TGI,786-0 renal,> 100 µM
same,TGI,OVCAR-4 ovarian,> 100 µM
same,TGI,T-47D breast,> 100 µM
same,TGI,MCF7 breast,> 100 µM
same,TGI,HOP-62 NSCLC,> 100 µM
same,TGI,OVCAR-3 ovarian,> 100 µM
same,TGI,TK-10 renal,> 100 µM
same,TGI,SF-295 CNS,> 100 µM
same,TGI,BT-549 breast,> 100 µM
same,TGI,SW-620 colon,> 100 µM
same,TGI,A549 NSCLC,> 100 µM
same,TGI,UO-31 renal,> 100 µM
same,TGI,SN12C renal,> 100 µM
same,TGI,MDA-MB-435,> 100 µM
same,TGI,NCI/ADR-RES ovarian,> 100 µM
same,TGI,MOLT-4 leukemia,> 100 µM
same,TGI,UACC-257 melanoma,> 100 µM
